≈ marks a conversion by molar mass, not a printed value. Marks after values point to notes of the source that are not given here.
Columns and labels:
M. javanica = assay: Nematicidal activity on infective juveniles (J2); type: in vivo, Meloidogyne javanica; details: J2, 72 h
Description: The nematode population (M. javanica) was maintained in growth chambers on tomato plants—Lycopersicon esculentum (var Marmande)—at 25° C. and a relative humidity of 70%. The tests were carried out according to the methodology described for M. javanica (Andres et al. 2012. Phytochem. Rev. 11, 371-390) using the biological stage of infective juveniles (J2). […] Each treatment was repeated four times and nematicidal activity was determined from the percentage of infective juveniles dead after 72 h. In cases in which a mortality rate of >99% was determined, dose-response experiments were carried out to determine LC50 and LC90.

M. persicae = assay: Aphid settlement inhibition on leaf disks (% SI); type: in vivo, Myzus persicae; details: for M. persicae % SI: compounds at 50 μg/cm^2, 24 h; for EC50 (M. persicae): dose-response, settlement inhibition, limits in brackets
Description: (§1) Breeding and maintenance of the insects was carried out in a temperature-controlled chamber at 24±1° C., 60-70% relative humidity and a photoperiod of 16:8 hours (light:darkness). Larvae of S. littoralis were maintained on a semisynthetic diet (Poitut and Bues. 1970. Ann. Zool. Ecol. Anim. 2, 79-91) and aphids M. persicae and Rhopalosiphum padi on their host plants, pepper—Capsicum annuum L.—and barley—Hordeum vulgare L.—respectively. Tests on anti-feeding activity were carried out with newly hatched larvae of the sixth stage of S. littoralis and wingless adult aphids. The upper surface of leaf disks (1.0 cm^2) of the pepper (Capsicum annuum L.) were treated with 10 μl of a solution (10 mg/ml for extracts and 5 mg/ml for pure products). Each test consisted of 5 Petri dishes with two (S. littoralis) larvae per dish or twenty boxes (2×2 cm) with ten M. persicae or R. padi aphids incubated in a growth chamber under the same conditions described for the breeding of the insects. Once consumed 75% of the surface of the control dishes (S. littoralis) or after 24 h (M. persicae or R. padi) the consumption (% FI) or settlement index (% SI), was calculated respectively. % FI=[1−(T/C)×100], where T and C are the consumption of treated leaves discs and control; % SI=[1−(% T/C %)] where % C and % T are the percentage of aphids settled on the discs of control and treated leaves (Burgueño et al. 2008. J. Chem. Ecol. 34, 766-771). Compounds with an FI/SI>70% were tested in a dose-response experiment to calculate its relative potency (EC50, being the effective dose for a reduction of 50% of feeding).

Lactuca sativa = assay: Phytotoxicity test on seeds (germination, root growth); details: for Germination (% C) 72 h / Growth (% C) Root: Lactuca sativa; for Germination (% C) 72 h / Growth (% C) Root / phytotoxic effects on germination and root development: in vivo; for Growth (% C) Root: 6 days
Description: […] 500 μl of distilled water and 10/5 seeds, were added to each well, and the plates were incubated in a growth chamber at 25° C., 70% relative humidity and a 16:08 L:D photoperiod. Seeds' germination was recorded for six days and the elongation of roots was assessed at the end of the experiment. The data were analysed by variance analysis (ANOVA).

Botrytis cinerea = assay: Antifungal activity, agar dilution, mycelial growth inhibition; type: cell-based; details: for inhibition at 500 µg/mL: 0.5 mg/ml, 48 h
Description: (§2) Phytopathogenic fungi Fusarium moniliforme (Sheldon) [CECT 2152] F. oxysporum fs. lycopersici ([…] 2715] and F. solani (Mart) [CECT 2199] come from the Spanish Type Culture Collection (CECT). The strain Botrytis cinerea Pers.:Fr. (B05.10) is a donation from the Biochemistry Department at the University of La Laguna (ULL). For their maintenance the strains were grown on solid commercial medium PDA at 25° C. […] To determine the antifungal activity, the agar dilution method was used (Murabayashi et al. 1991. J. Pesticide Sci. 16, 419-427). […] In parallel, controls were prepared with ethanol at a concentration of 2%. […] Colonies grown in petri dishes and incubated for 48 h were digitized and measured using the ImageJ 1.43 software. The percentage of inhibition (% I) was calculated as: % I=(C-T/C)×100, where C is the diameter of control colonies and T of the colonies of the tested samples. The growth inhibition effective dose (EC50) was determined by linear regression analysis (% of inhibition of dose log).

S. littoralis = assay: Anti-feeding activity on leaf disks (% FI); type: in vivo, Spodoptera littoralis; details: compounds at 50 μg/cm^2
Description: as §1, with “Each test consisted of 5 Petri dishes with two (S. littoralis) larvae per dish or twenty boxes (2×2 cm) with ten M. persicae or R. padi aphids incubated in a growth chamber under the same conditions described for the breeding of the insects.” left out, “Compounds with an FI/SI>70% were tested in a dose-response experiment to calculate its relative potency (EC50, being the effective dose for a reduction of 50% of feeding).” left out

F. solani = assay: Antifungal activity, agar dilution, mycelial growth inhibition; type: cell-based; details: Fusarium solani
Description: as §2

F. moniliforme = assay: as above; type: cell-based, Fusarium moniliforme; details: Fusarium verticillioides; tested at 0.1 mg/ml (footnote a); 48 h
Description: as §2

R. padi = assay: Aphid settlement inhibition on leaf disks (% SI); type: in vivo, Rhopalosiphum padi; details: compounds at 50 μg/cm^2; 24 h
Description: as §1, with “Each test consisted of 5 Petri dishes with two (S. littoralis) larvae per dish or twenty boxes (2×2 cm) with ten M. persicae or R. padi aphids incubated in a growth chamber under the same conditions described for the breeding of the insects.” left out, “Compounds with an FI/SI>70% were tested in a dose-response experiment to calculate its relative potency (EC50, being the effective dose for a reduction of 50% of feeding).” left out

Row | EC50 (Botrytis cinerea; growth inhibition, linear regression, read-out: EC50 (95% CL) Botrytis cinerea) | EC50 (F. solani; growth inhibition, linear regression, read-out: EC50 (95% CL) F. solani) | Compound | M. javanica % paralysed (M. javanica; 0.25 mg/ml) | M. javanica % paralysed (M. javanica; 0.5 mg/ml) | M. persicae % SI (M. persicae) | EC50 (M. persicae) (M. persicae) | Germination (% C) 72 h (Lactuca sativa; 5 μg/μl) | Growth (% C) Root (Lactuca sativa; 5 μg/μl) | phytotoxic effects on germination and root development (Lactuca sativa) | inhibition at 500 µg/mL (Botrytis cinerea) | S. littoralis % FI (S. littoralis) | inhibition at 100 µg/mL (F. solani; tested at 0.1 mg/ml (footnote a), 48 h) | inhibition at 100 µg/mL (F. moniliforme) | R. padi % SI (R. padi) | germination (Lactuca sativa; positive control of germination inhibition, 5 μg/μl)
1 | 430 µg/mL (≈ 1690 µM) | – | CCCCCC1=CC(=O)[C@](O)(CCCC)[C@H](O)C1 (stereo in doubt) [Stempholone A, 6-butyl-5,6-dihydroxy-3-pentylcyclohex-2-en-1-one] | 2.8 ± 0.5% | 83.05 ± 3.15% | 81.42 ± 5.61% | 0.15 (0.06-0.36)* μg/cm^2 | 97.50 ± 3.54^ % C | 230.26 ± 21.33 % C | absence of phytotoxic effects | 56.2 ± 1.5% | 41.8 ± 7.9% | – | – | – | –
2 | – | 210 µg/mL (≈ 777 µM) | CCCC[C@@]1(O)C(=O)C=C(CCCC(C)O)C[C@H]1O (stereo in doubt) [Stempholone B, 6-butyl-5,6-dihydroxy-3-(4-hydroxypentyl)cyclohex-2-en-1-one] | – | 1.24 ± 0.9% | 83.87 ± 6.89% | 0.02 (0.003-0.15)* μg/cm^2 | 100 ± 0.00 % C | 109.26 ± 9.57 % C | absence of phytotoxic effects | 11.9 ± 3.67% | 52.9 ± 5.9% | 49.9% | 4.2% | 45.13 ± 9.09% | –
3 | – | – | O=C1C=CC(=O)c2c(O)cccc21 [juglone, reference compound] | – | – | – | – | – | – | – | – | – | – | – | – | lower than 5%
